{"source": "paper PMC10492782", "about": "“Exploiting the aggregation propensity of beta-lactamases to design inhibitors that induce enzyme misfolding” (Nature Communications, 2023)", "key": {"E. coli TEM104": {"system": "E. coli TEM104", "conditions": "checkerboard, strain containing TEM1 / TEM-1; FICI below 0.5 = synergy", "procedure": "To quantify the synergy between these four peptides and penicillin G, we performed a so-called checkerboard assay, which allows us to compare the activity of two test compounds co-incubated (here peptide and a beta-lactam antibiotic), to their individual activities in isolation. […] We evaluated the synergy of the peptides with penicillin G in clinical E. coli isolates carrying the TEM (Fig. 3D) or SHV enzymes (Fig. 3E). […] The list of strains included some that harbored only TEM or SHV, but others contained additional Ambler Class A (CTX-M or OXA) or Class B (VIM and NDM) beta-lactamases.\nFor the analysis of synergy between the peptides and other antibiotics, a checkerboard assay was performed. Based on the MICs of the selected peptides, a checkerboard assay was designed to define their FICIs (Fractional Inhibitory Concentration Index) in combinations against different clinical isolates[53],[54]. Briefly, a total volume of 100 μL of Mueller–Hinton broth was distributed into each well of the 96-well plates. The first compound (peptide) of the combination was serially diluted vertically (128, 64, 32, 16, 8, 4, 2, 0 μg/mL) while the other drug (Beta-lactam or Kanamycin) was diluted horizontally in a 96-well plate (from 3200 to 3 μg/ mL). The total volume of each microtiter well was inoculated with 100 μL of MHB containing 1 × 10^6 CFU/mL bacteria. The plates were incubated at 37 °C for 24 h under aerobic conditions without shaking. Calculation of the FICI is used to analyze the results of the checkerboard assay by estimating the degree of synergistic effect. FICI is calculated as the sum of the individual fractional inhibitory concentrations (FICs) for each drug (where MIC A and MIC B denote the MIC of each drug alone, and MIC AA+B and MIC BA+B denote the concentrations of A and B in the drug combination). FICI = (MIC AA+B/MIC A) + (MIC BA+B/MIC B). With FICI ≤ 0.5, the combination of antibiotics is considered as a synergistic effect, 0.5 < FICI ≤ 1 indicates additivity, FICI > 1 indicates indifference."}, "[1]": {"assay": "Thioflavin-T aggregation kinetics and electron microscopy of peptide", "format": "physicochemical", "conditions": "50 μM peptide with polyphosphate; EM after 24 h incubation at RT", "procedure": "Fig. 4 Aggregation kinetics of TEM and SHV proteins and peptides. A Measurements of the hydrodynamic radius by Dynamic Light Scattering of 50 μM TEM3.2 in buffer alone, or in the presence of LPS or polyphosphate (PolyP). […] C Transmission Electron Micrograph of 50 μM TEM 3.2 incubated for 24 h in the same buffer as A with polyP, negatively stained with 2% (w/v) uranyl acetate. A single representative image is shown. […] Three replicates are shown for each condition. E Aggregation kinetics using pFTAA fluorescence emission of recombinantly purified TEM-1, in the presence of vehicle, or TEM 3.2 peptin, as well as peptin-only control. F Similar as in E, but using an off-target Pept-In, based on an APR sequence of beta-galactosidase. G Similar to E, but now using a previously published off-target Pept-In, based on an APR of HcaB. The plots are the results of a single experiment, all replicates are shown. Source data are provided as a Source Data file.\nA DynaPro DLS plate reader instrument (Wyatt, Santa Barbara, CA, USA) equipped with an 830 nm laser source was used to determine the hydrodynamic radius (RH) of the peptide particles. […] The autocorrelation of scattered light intensity at a 32° angle was recorded for 5 s and averaged over 20 recordings to obtain a single data point. […]"}, "HeLa cells": {"system": "HeLa cells", "assay": "CellTiter Blue cell viability", "conditions": "24 h, 37 °C, DMEM without serum", "procedure": "Fig. 7 Evaluation of in vivo use of peptides that induce the aggregation of TEM beta-lactamase. A Lysis of human erythrocytes (hemolysis) was assessed in the presence of the indicated concentrations of TEM3.2 for 2 h at 37 °C, and normalized to the value obtained with 1% of the detergent triton. […] B Cell viability using the CellTiter Blue assay of HeLa cells treated for 24 h with the indicated concentrations TEM 3.2 at 37 °C. […] DAPI (4’,6-diamidino-2-phenylindole) is blue, while CellMask is red. D Experimental workflow of the in vivo model used in this study. E–G Bacterial load of indicated organs of female C57BL/6JAX mice with a urinary tract infection with E. coli strain UZ_TEM104, treated with 30 mg/kg penicillin (oral) as well 10 mg/kg tazobactam (oral) or 10 mg/kg TEM3.2 via the indicated treatment route. IV intravenous, IP intraperitoneal, SC subcutaneously. The data shown is from a single experiment with 12 animals for each group. The result for each animal is shown as a dot. […] The statistically significant differences were determined using ANOVA, followed by Dunnett’s multiple comparison test. […]\nThe Cell Titer Blue assay was performed to evaluate the cell viability according to the instructions of the manufacturer (Promega, USA). […] The fluorescence was measured at 590 nm by exciting at 560 nm with a ClarioStar plate reader (BMG Labtech, Germany)."}, "[2]": {"assay": "Hematologic analysis after repeated dosing", "conditions": "daily IV injections, 5 mg/kg"}}, "data": [{"substance": "Ac-RLTAFLHNRRPRLTAFLRQRR-NH2 [TEM3.2]", "values": [{"measurement": "synergy with penicillin G (in words)", "setting": "E. coli TEM104", "value": "showed synergy in both strains"}, {"measurement": "Thioflavin T binding and Transmission Electron Microscopy (in words)", "setting": "[1]", "value": "amyloid-like aggregation in the presence of polyphosphate"}, {"measurement": "cytotoxicity, Cell Titer Blue (in words)", "setting": "HeLa cells", "value": "not cytotoxic"}, {"measurement": "hematologic analysis (in words)", "setting": "[2]", "value": "no major discrepancies to vehicle-treated controls"}]}]}
